Experimental data taken from PubChem BioAssay AID2060606 (Molecular Pharmacology Branch, DTP, NCI, 2025).

Test system: 922993-354-T-J3-PDC complex spheroids, viability, % test/control
Test: Anticancer human tumor 922993-354-T-J3-PDC patient-derived endometrial carcinoma cell line growth inhibition [CLK]
Conditions: for IC50: curve of first compound; for viability, T/C: stronger effect = lower value
In short: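 Patient-derived tumor cells grown as complex spheroids with HUVEC endothelial cells and mesenchymal stem cells, treated with drug combinations. Concentrations descend in half-log steps from near clinical Cmax, or from 10 microM if Cmax unknown.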

[1] = second compound 0.0316 µM, first compound 0.0316 µM
[2] = second compound 0.0316 µM, first compound 0.1 µM
[3] = second compound 0.0316 µM, first compound 0.316 µM
[4] = second compound 0.0316 µM, first compound 1 µM
[5] = second compound 0.0316 µM, first compound 3.16 µM
[6] = second compound 0.0316 µM, first compound 10 µM
[7] = second compound 0.1 µM, first compound 0.0316 µM
[8] = second compound 0.1 µM, first compound 0.1 µM
[9] = second compound 0.1 µM, first compound 0.316 µM
[10] = second compound 0.1 µM, first compound 1 µM
[11] = second compound 0.1 µM, first compound 3.16 µM
[12] = second compound 0.1 µM, first compound 10 µM
[13] = second compound 0.316 µM, first compound 0.0316 µM
[14] = second compound 0.316 µM, first compound 0.1 µM
[15] = second compound 0.316 µM, first compound 0.316 µM
[16] = second compound 0.316 µM, first compound 1 µM
[17] = second compound 0.316 µM, first compound 3.16 µM
[18] = second compound 0.316 µM, first compound 10 µM
[19] = second compound 1 µM, first compound 0.0316 µM
[20] = second compound 1 µM, first compound 0.1 µM
[21] = second compound 1 µM, first compound 0.316 µM
[22] = second compound 1 µM, first compound 1 µM
[23] = second compound 1 µM, first compound 3.16 µM
[24] = second compound 1 µM, first compound 10 µM
[25] = second compound 3.16 µM, first compound 0.0316 µM
[26] = second compound 3.16 µM, first compound 0.1 µM
[27] = second compound 3.16 µM, first compound 0.316 µM
[28] = second compound 3.16 µM, first compound 1 µM
[29] = second compound 3.16 µM, first compound 3.16 µM
[30] = second compound 3.16 µM, first compound 10 µM
[31] = second compound 10 µM, first compound 0.0316 µM
[32] = second compound 10 µM, first compound 0.1 µM
[33] = second compound 10 µM, first compound 0.316 µM
[34] = second compound 10 µM, first compound 1 µM
[35] = second compound 10 µM, first compound 3.16 µM
[36] = second compound 10 µM, first compound 10 µM
[37] = second compound 0.0316 µM, first compound 0.00316 µM
[38] = second compound 0.0316 µM, first compound 0.01 µM
[39] = second compound 0.1 µM, first compound 0.00316 µM
[40] = second compound 0.1 µM, first compound 0.01 µM
[41] = second compound 0.316 µM, first compound 0.00316 µM
[42] = second compound 0.316 µM, first compound 0.01 µM
[43] = second compound 1 µM, first compound 0.00316 µM
[44] = second compound 1 µM, first compound 0.01 µM
[45] = second compound 3.16 µM, first compound 0.00316 µM
[46] = second compound 3.16 µM, first compound 0.01 µM
[47] = second compound 10 µM, first compound 0.00316 µM
[48] = second compound 10 µM, first compound 0.01 µM
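Also: spheroids exposed to the agents for 7 days before readout.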

CC(CO)NC(=O)c1cc(-c2ccc(Cl)cc2)nn(-c2cnn(C)c2)c1=O (stereo not drawn) + CNC(=O)c1ccc(Nc2nc(OC3CCCC3)c3c(-c4ccc5nc(C)oc5c4)c[nH]c3n2)c(OC)c1
IC50 (second compound 0.0316 µM): > 10000 nM | IC50 (second compound 0.1 µM): > 10000 nM | IC50 (second compound 0.316 µM): > 10000 nM | IC50 (second compound 1 µM): < 31.6 nM | IC50 (second compound 3.16 µM): < 31.6 nM | IC50 (second compound 10 µM): < 31.6 nM | viability, T/C [1]: 108% | viability, T/C [2]: 100% | viability, T/C [3]: 101% | viability, T/C [4]: 101% | viability, T/C [5]: 102% | viability, T/C [6]: 98.6% | viability, T/C [7]: 113% | viability, T/C [8]: 102% | viability, T/C [9]: 91.3% | viability, T/C [10]: 103% | viability, T/C [11]: 118% | viability, T/C [12]: 75.4% | viability, T/C [13]: 59% | viability, T/C [14]: 57.4% | viability, T/C [15]: 56.9% | viability, T/C [16]: 48% | viability, T/C [17]: 59.3% | viability, T/C [18]: 57.8% | viability, T/C [19]: 38.9% | viability, T/C [20]: 34% | viability, T/C [21]: 33.5% | viability, T/C [22]: 39.9% | viability, T/C [23]: 47.7% | viability, T/C [24]: 34.3% | viability, T/C [25]: 30.5% | viability, T/C [26]: 31% | viability, T/C [27]: 30% | viability, T/C [28]: 30.9% | viability, T/C [29]: 37.9% | viability, T/C [30]: 36% | viability, T/C [31]: 34.2% | viability, T/C [32]: 30.3% | viability, T/C [33]: 29.9% | viability, T/C [34]: 26.9% | viability, T/C [35]: 32.5% | viability, T/C [36]: 30.7%

CC(Nc1ccc2c(c1)OCCn1cc(N3C(=O)OCC3C(F)F)nc1-2)C(N)=O (stereo not drawn) + CNC(=O)c1ccc(Nc2nc(OC3CCCC3)c3c(-c4ccc5nc(C)oc5c4)c[nH]c3n2)c(OC)c1
IC50 (second compound 0.0316 µM): 3780 nM | IC50 (second compound 0.1 µM): 4180 nM | IC50 (second compound 0.316 µM): 1960 nM | IC50 (second compound 1 µM): < 31.6 nM | IC50 (second compound 3.16 µM): < 31.6 nM | IC50 (second compound 10 µM): < 31.6 nM | viability, T/C [1]: 116% | viability, T/C [2]: 106% | viability, T/C [3]: 84.8% | viability, T/C [4]: 70.6% | viability, T/C [5]: 57% | viability, T/C [6]: 31.7% | viability, T/C [7]: 108% | viability, T/C [8]: 102% | viability, T/C [9]: 99.5% | viability, T/C [10]: 74.5% | viability, T/C [11]: 55.9% | viability, T/C [12]: 37% | viability, T/C [13]: 71.7% | viability, T/C [14]: 69.3% | viability, T/C [15]: 77.6% | viability, T/C [16]: 63.8% | viability, T/C [17]: 40% | viability, T/C [18]: 31.8% | viability, T/C [19]: 39.8% | viability, T/C [20]: 36.5% | viability, T/C [21]: 26.4% | viability, T/C [22]: 23.1% | viability, T/C [23]: 15.2% | viability, T/C [24]: 10.8% | viability, T/C [25]: 35.1% | viability, T/C [26]: 27.4% | viability, T/C [27]: 24% | viability, T/C [28]: 16.3% | viability, T/C [29]: 12.3% | viability, T/C [30]: 10.8% | viability, T/C [31]: 28.9% | viability, T/C [32]: 27.2% | viability, T/C [33]: 21.5% | viability, T/C [34]: 17.6% | viability, T/C [35]: 13.4% | viability, T/C [36]: 9.54%

CCN1CCN(Cc2ccc(Nc3ncc(F)c(-c4cc(F)c5nc(C)n(C(C)C)c5c4)n3)nc2)CC1 + CNC(=O)c1ccc(Nc2nc(OC3CCCC3)c3c(-c4ccc5nc(C)oc5c4)c[nH]c3n2)c(OC)c1
IC50 (second compound 0.0316 µM): > 1000 nM | IC50 (second compound 0.1 µM): > 1000 nM | IC50 (second compound 0.316 µM): 297 nM | IC50 (second compound 1 µM): < 3.16 nM | IC50 (second compound 3.16 µM): < 3.16 nM | IC50 (second compound 10 µM): < 3.16 nM | viability, T/C [37]: 106% | viability, T/C [38]: 93.2% | viability, T/C [1]: 98.5% | viability, T/C [2]: 88.5% | viability, T/C [3]: 69% | viability, T/C [4]: 59.9% | viability, T/C [39]: 103% | viability, T/C [40]: 93.4% | viability, T/C [7]: 92.4% | viability, T/C [8]: 76.7% | viability, T/C [9]: 66.9% | viability, T/C [10]: 53.8% | viability, T/C [41]: 58% | viability, T/C [42]: 59.2% | viability, T/C [13]: 57.4% | viability, T/C [14]: 56.4% | viability, T/C [15]: 45.5% | viability, T/C [16]: 45.7% | viability, T/C [43]: 35.6% | viability, T/C [44]: 33.6% | viability, T/C [19]: 33.6% | viability, T/C [20]: 35.9% | viability, T/C [21]: 30.5% | viability, T/C [22]: 38.1% | viability, T/C [45]: 29.4% | viability, T/C [46]: 27.9% | viability, T/C [25]: 30.5% | viability, T/C [26]: 31.5% | viability, T/C [27]: 31.6% | viability, T/C [28]: 35.5% | viability, T/C [47]: 28.6% | viability, T/C [48]: 29.2% | viability, T/C [31]: 31.9% | viability, T/C [32]: 29% | viability, T/C [33]: 38.4% | viability, T/C [34]: 36.3%

COc1c(OCCCN2CCOCC2)ccc2c3n(c(=NC(=O)c4cnc(N)nc4)nc12)CCN3 + CNC(=O)c1ccc(Nc2nc(OC3CCCC3)c3c(-c4ccc5nc(C)oc5c4)c[nH]c3n2)c(OC)c1
IC50 (second compound 0.0316 µM): 215 nM | IC50 (second compound 0.1 µM): 238 nM | IC50 (second compound 0.316 µM): 168 nM | IC50 (second compound 1 µM): < 3.16 nM | IC50 (second compound 3.16 µM): < 3.16 nM | IC50 (second compound 10 µM): < 3.16 nM | viability, T/C [37]: 92.2% | viability, T/C [38]: 88.6% | viability, T/C [1]: 83.5% | viability, T/C [2]: 72.2% | viability, T/C [3]: 38.9% | viability, T/C [4]: 14.8% | viability, T/C [39]: 123% | viability, T/C [40]: 100% | viability, T/C [7]: 108% | viability, T/C [8]: 78.2% | viability, T/C [9]: 40% | viability, T/C [10]: 15% | viability, T/C [41]: 90.5% | viability, T/C [42]: 87.9% | viability, T/C [13]: 74.4% | viability, T/C [14]: 63.5% | viability, T/C [15]: 35.6% | viability, T/C [16]: 10.8% | viability, T/C [43]: 42.2% | viability, T/C [44]: 37% | viability, T/C [19]: 27.9% | viability, T/C [20]: 20.6% | viability, T/C [21]: 10.1% | viability, T/C [22]: 1.71% | viability, T/C [45]: 32.6% | viability, T/C [46]: 28.9% | viability, T/C [25]: 22.5% | viability, T/C [26]: 11.8% | viability, T/C [27]: 7.41% | viability, T/C [28]: 1.47% | viability, T/C [47]: 31.1% | viability, T/C [48]: 25.5% | viability, T/C [31]: 20% | viability, T/C [32]: 11.7% | viability, T/C [33]: 7.11% | viability, T/C [34]: 1.68%
